Data from patent US6900338B1, “Scavenger compounds” (Yissum Research Development Company of the Hebrew …, priority 1998, dated 2005).

Tests used:
[1] = test system: tissue guanylyl cyclase response to nitrates (aortic cGMP); experiment: Acute effects: aortic cGMP after NTG bolus, with or without pre-treatment with the compounds; assay type: in vivo, rat
Method: • a) Acute effects: Rats (Spargue-Dawely) weighing 300-400 g were treated with an intravenous (i.v.) bolus dose of 2 mg nitroglycerin (NTG) before and after pre-treatment with the compounds (50 mg/kg) administered intraperitoneally. Compounds 1 and 2 from FIG. 1, compounds 9 and 10 from FIG. 2, compounds 17 and 18 from FIG. 3, compounds 25 a nd 26 from FIG. 4 were dissolved in a mixture of ethanol:propylene glycol:water (1:1:1) and administered in 1 ml intraperitoneally one hour before NTG administration. One minute after the NTG administration, the rats were sacrificed by decapitation and the aorta was removed quickly, immersed in a phosphate buffer solution containing 20 mM EDTA and immediately frozen in liquid nitrogen add stored at −70° until analyzed. Next day, the tissue were analyzed for their cGMP content. After thawing, tissue were weighed and homogenized in EDTA-phosphate buffer, centrifuged and the super collected into another tube. The pellet was washed with 1 ml buffer, vortex-mixed, centrifuged and the supernatant added to the second tube. 2 ml of acetonitrile were added to the tube containing the combined extracts and the tube vortex-mixed, centrifuged and the supernatant collected to another clean tube. […] The cGMP content of the solution was determined using a radioimmunoassay (RIA-Amersham) as previously reported by us. […]

[2] = test system: vascular (aortic) guanylyl cyclase activity; experiment: Prevention of nitrate tolerance: aortic cGMP after continuous NTG infusion, with or without the compounds; assay type: in vivo, rat; settings: for tolerance development to NTG / NO-donors (result in words): co-administration with nitrates
Method: • a) Acute effects: Rats (Spargue-Dawely) weighing 300-400 g were treated with an intravenous (i.v.) bolus dose of 2 mg nitroglycerin (NTG) before and after pre-treatment with the compounds (50 mg/kg) administered intraperitoneally. Compounds 1 and 2 from FIG. 1, compounds 9 and 10 from FIG. 2, compounds 17 and 18 from FIG. 3, compounds 25 a nd 26 from FIG. 4 were dissolved in a mixture of ethanol:propylene glycol:water (1:1:1) and administered in 1 ml intraperitoneally one hour before NTG administration. One minute after the NTG administration, the rats were sacrificed by decapitation and the aorta was removed quickly, immersed in a phosphate buffer solution containing 20 mM EDTA and immediately frozen in liquid nitrogen add stored at −70° until analyzed. Next day, the tissue were analyzed for their cGMP content. After thawing, tissue were weighed and homogenized in EDTA-phosphate buffer, centrifuged and the super collected into another tube. The pellet was washed with 1 ml buffer, vortex-mixed, centrifuged and the supernatant added to the second tube. 2 ml of acetonitrile were added to the tube containing the combined extracts and the tube vortex-mixed, centrifuged and the supernatant collected to another clean tube. The aqueous-acetonitrile solution in this latter tube was evaporated to dryness and the reside dissolved in assay buffer. The cGMP content of the solution was determined using a radioimmunoassay (RIA-Amersham) as previously reported by us.
Similar significant increases were also obtained when pre-treatment was performed with other compounds (see above). • b) Prevention: Rat were administered a continuos infusion of NTG known to induce tolerance with or without concomitant administration of the compounds (the same tested for the acute effects). The compounds were administered either in continuos i.v. infusion or intraperitoneally in 4 separated doses (q 6 hours). The effects on vascular (aortic) guanylyl cyclase activity was then evaluated as described above for control rats.

Compound | tissue guanylyl cyclase response to nitrates (result in words) ([1]; pre-treatment or co-administration with nitrate / NO donor) | tolerance development to NTG / NO-donors (result in words) [2] | cGMP ([1]; NTG alone, i.v. bolus 2 mg, aorta removed one minute after NTG) | cGMP ([2]; NTG-pretreatment: continuous NTG infusion known to induce tolerance, no compound, aorta)
O=C(O)CCCCC1CCSS1 (centres unmarked) [LA, 1,2-dithiolane-3-valeric acid] | enhances its activity | retards tolerance development |  | 
O=[N+]([O-])OCC(CO[N+](=O)[O-])O[N+](=O)[O-] [NTG, nitroglycerin] |  |  | 175 ± 13 pmol/g tissue | 64 ± 9 pmol/g tissue
lipoyl lipoate |  | prevents/retards tolerance development |  | 
